Data from ChEMBL document CHEMBL1143504, “Structure-based design of derivatives of tyropeptin A as the potent and selective inhibitors of mammalian 20S proteasome” (Bioorg Med Chem Lett, 2005).
pIC50: −log10 of the molar value. Where a SMILES comes first, the peptide text is derived from it. [ ]: non-standard residue; d: D form. The star is where a group is joined. ξ: configuration not given here. ξY = NC(Cc1ccc(O)cc1)C(=O)O; Isovaleryl = CC(C)CC(=O)*; Hexanoyl = CCCCCC(=O)*; PhAc = O=C(Cc1ccccc1)*

Experiments:
Type in all cases: functional, subcellular
20S proteasome [1] = assay: Inhibitory concentration to inhibit chymotrypsin-like activity of 20S proteasome prepared from human leukemia HL-60 cells was determined
20S proteasome [2] = assay: Inhibitory concentration to inhibit the PGPH activity of 20S proteasome prepared from human leukemia HL-60 cells was determined
20S proteasome [3] = assay: Inhibitory concentration to inhibit trypsin-like activity of 20S proteasome from human leukemia HL-60 cells was determined

pIC50 (20S proteasome [1]) | pIC50 (20S proteasome [2]) | pIC50 (20S proteasome [3]) | Compound
7.70 | 4.51 | 5.22 | COc1ccc(C[C@H](NC(=O)Cc2cccc3ccccc23)C(=O)N[C@H](C(=O)NC(C=O)Cc2ccc(O)cc2)C(C)C)cc1 (stereo partly specified)
7.57 | < 4.00 | < 4.00 | COc1ccc(CC(C=O)NC(=O)[C@@H](NC(=O)[C@H](Cc2ccc(OC)cc2)NC(=O)Cc2cccc3ccccc23)C(C)C)cc1 (stereo partly specified)
6.92 | 4.25 | 4.43 | COc1ccc(CC(C=O)NC(=O)[C@@H](NC(=O)[C@H](Cc2ccc(OC)cc2)NC(=O)CC(C)C)C(C)C)cc1 (stereo partly specified) (Isovaleryl-Tyr(Me)-Val-[ξY](Me)-aldehyde)
6.72 | 4.68 | 4.68 | COc1ccc(CC(C=O)NC(=O)[C@@H](NC(=O)[C@H](Cc2ccc(O)cc2)NC(=O)CC(C)C)C(C)C)cc1 (stereo partly drawn) (Isovaleryl-Tyr-Val-[ξY](Me)-aldehyde)
5.92 | < 4.00 | 5.11 | COc1ccc(C[C@@H](C=O)NC(=O)[C@@H](NC(=O)[C@H](Cc2ccc(OC)cc2)NC(=O)CN(C)C)C(C)C)cc1
7.57 | 4.80 | 5.70 | CC(C)[C@H](NC(=O)[C@H](Cc1ccc(O)cc1)NC(=O)Cc1ccccc1)C(=O)NC(C=O)Cc1ccc(O)cc1 (stereo partly drawn) (PhAc-Tyr-Val-[ξY]-aldehyde)
6.85 | 4.17 | 5.30 | CC(C)CC(=O)N[C@@H](Cc1ccc(O)cc1)C(=O)N[C@H](C(=O)NC(C=O)Cc1ccc(O)cc1)C(C)C (stereo partly drawn) [TYROPEPTIN A] (Isovaleryl-Tyr-Val-[ξY]-aldehyde)
7.85 | 5.33 | 6.15 | CC(C)[C@H](NC(=O)[C@H](Cc1ccc(O)cc1)NC(=O)Cc1ccc2ccccc2c1)C(=O)NC(C=O)Cc1ccc(O)cc1 (stereo partly specified)
6.48 | 4.77 | 5.52 | CC(C)[C@H](NC(=O)[C@H](Cc1ccc(O)cc1)NC(=O)CC1CCCCC1)C(=O)NC(C=O)Cc1ccc(O)cc1 (stereo partly specified)
7.43 | 4.70 | 5.70 | CCCCCC(=O)N[C@@H](Cc1ccc(O)cc1)C(=O)N[C@H](C(=O)NC(C=O)Cc1ccc(O)cc1)C(C)C (stereo partly drawn) (Hexanoyl-Tyr-Val-[ξY]-aldehyde)
8.15 | 5.31 | 5.92 | CC(C)[C@H](NC(=O)[C@H](Cc1ccc(O)cc1)NC(=O)Cc1cccc2ccccc12)C(=O)NC(C=O)Cc1ccc(O)cc1 (stereo partly specified)
7.74 | 4.42 | 5.22 | COc1ccc(CC(C=O)NC(=O)[C@@H](NC(=O)[C@H](Cc2ccc(O)cc2)NC(=O)Cc2cccc3ccccc23)C(C)C)cc1 (stereo partly specified)
